From patent US4552874A, “Pyrazolooxazines, pyrazolothiazines, and pryazoloquinolines and their use as medicaments” (Bayer Aktiengesellschaft, priority 1982, dated 1985)

Target: T1, Lipoxygenase in platelet (Homo sapiens, UniProt P18054)
T1 construct: the metabolism of radioactively labelled arachidonic acid on washed human platelets is used; endogenous in cells; host or cells: washed human platelets
T1 sequence (P18054 1-663): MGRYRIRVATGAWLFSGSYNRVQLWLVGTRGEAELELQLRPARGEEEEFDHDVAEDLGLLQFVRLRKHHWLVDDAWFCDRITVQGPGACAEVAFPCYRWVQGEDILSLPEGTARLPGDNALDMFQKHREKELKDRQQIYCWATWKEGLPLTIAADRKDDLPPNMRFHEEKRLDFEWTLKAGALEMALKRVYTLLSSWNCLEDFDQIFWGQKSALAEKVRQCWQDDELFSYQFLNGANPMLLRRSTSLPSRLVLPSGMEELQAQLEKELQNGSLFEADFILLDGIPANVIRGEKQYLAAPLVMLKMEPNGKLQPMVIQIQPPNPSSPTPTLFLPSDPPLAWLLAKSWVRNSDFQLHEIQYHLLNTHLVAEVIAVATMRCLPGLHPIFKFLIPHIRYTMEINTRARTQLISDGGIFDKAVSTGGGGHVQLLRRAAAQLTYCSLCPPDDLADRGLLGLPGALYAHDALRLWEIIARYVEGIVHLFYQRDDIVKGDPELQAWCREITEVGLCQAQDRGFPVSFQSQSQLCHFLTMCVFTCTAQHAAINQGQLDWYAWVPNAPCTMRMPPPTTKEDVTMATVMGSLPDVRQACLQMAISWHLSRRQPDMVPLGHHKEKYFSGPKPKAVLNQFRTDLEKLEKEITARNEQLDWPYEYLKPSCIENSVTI
Assay: Inhibition of lipoxygenase in washed human platelets (HETE synthesis from radioactively labelled arachidonic acid)
Format: cell-based
Settings: in vitro
Experimental: In this test method, the metabolism of radioactively labelled arachidonic acid on washed human platelets is used. In this in vitro test, the radioactively labelled metabolites are extracted from the reaction mixture and separated by thin-layer chromatography. The autoradiogram is evaluated on a thin-layer scanner. Under these test conditions, the labelled metabolites are separated from the unreacted arachidonic acid and can then be evaluated quantitatively. The distribution of radioactivity over the products of cyclooxygenase formed during the metabolism, thromboxane B2 (TXB2) and 12-hydroxy-5,8,10-heptadecatrienoic acid (HHT) and the product of lipoxygenase, 12-hydroxy-5,8,11,14-eicosatetraenoic acid (HETE), under the influence of the inhibitors provides a measure of the inhibition of the enzymes.
The inhibition of lipoxygenase by the compounds according to the invention can be measured by the inhibition of synthesis of HETE. It emerges that the synthesis of TXB2 and of HHT remains unaffected, whilst the conversion of arachidonic acid decreases. […] (Compare Table 1).

SMILES	Minimum concentration (g/ml) for inhibition of Lipoxygenase in platelet
CN(C)S(=O)(=O)c1ccc2c(c1)Oc1cn[nH]c1N2	10^-5 g/ml
Cn1ncc2c1Nc1ccccc1O2	10^-6 g/ml
Clc1ccc2c(c1)Nc1[nH]ncc1S2	10^-6 g/ml

Tested on: Lipoxygenase in PMN Leucocytes
Assay: Inhibition of lipoxygenase in PMN leucocytes (liberation of 5-HETE and leukotriene B4)
Format: cell-based, humans and rabbits
Settings: in vitro
Experimental: The polymorphonuclear leucocytes of humans and of rabbits metabolise arachidonic acid to 5-hydroxy-5,8,11,14-eicosatetraenoic acid (5-HETE) and leukotriene B4 (5S, 12R-dihydroxy-6 cis, 8,10-trans-14 cis-eicosatetraenoic acid). The inhibition of the liberation of 5-HETE and leukotriene B4 from the leucocytes provides a measure of the lipoxygenase-inhibitory effect of the compounds according to the invention. (Compare Table 1).
The test with human leucocytes is carried out by the method of Borgeat and Samuelsson (j. Biol. Chem. 254; 2643, 1979 and Proc. Natl. Acad. Sci. USA, 76, 2148 (1979), and with rabbit leucocytes by the method of Walker and Parish (Inter. Archs. Allergy appl. Immun. 66, 83, 1981).

SMILES	Minimum concentration (g/ml) for inhibition of Lipoxygenase in PMN Leucocytes
Clc1cc(Cl)c2c(c1)Nc1[nH]ncc1O2	10^-6 g/ml
Cn1ncc2c1Nc1ccccc1O2	10^-6 g/ml
Cc1ccc2c(c1)Nc1c(cnn1-c1ccccc1)S2	10^-5 g/ml
CN1c2ccccc2Cc2cn(C)nc21	> 10^-5 g/ml
CN1c2ccccc2Cc2cnn(-c3ccccc3)c21	> 10^-5 g/ml
CN1c2ccccc2Cc2cnn(C(=O)c3ccc(Cl)cc3)c21	> 10^-5 g/ml
c1ccc(N2c3ccccc3Cc3cn[nH]c32)cc1	> 10^-5 g/ml
COc1ccc2c(c1)Nc1[nH]ncc1O2	< 10^-6 g/ml
CCN1c2cc(OC)ccc2Oc2cn[nH]c21	< 10^-6 g/ml
COc1ccc2c(c1)N(C)c1nn(C)cc1O2	> 10^-5 g/ml
Oc1ccc2c(c1)Nc1[nH]ncc1O2	< 10^-6 g/ml
COc1ccc2c(c1)Oc1cn[nH]c1N2	< 10^-6 g/ml
c1ccc(CN2c3ccccc3Oc3cn[nH]c32)cc1	10^-6 g/ml
CN1c2ccccc2Oc2cn(CCO)nc21	> 10^-5 g/ml
CCOC(=O)CN1c2ccccc2Oc2cn[nH]c21	> 10^-5 g/ml
CC(=O)n1cc2c(n1)N(C)c1ccccc1S2	> 10^-5 g/ml
CC(C)N1c2ccccc2Oc2cn[nH]c21	< 10^-6 g/ml
c1ccc2c(c1)Oc1cn[nH]c1N2CC1CCCCC1	10^-5 g/ml
COc1ccc2c(c1)Nc1c(cnn1C(C)=O)O2	10^-5 g/ml
CCN1c2cc(OCC(=O)O)ccc2Oc2cn(C)nc21	10^ -5 g/ml
CN1c2ccccc2Cc2cn(C(=O)OCc3ccccc3)nc21	> 10^-5 g/ml
Cn1cc2c(n1)N(c1ccccc1)c1ccccc1C2	> 10^-5 g/ml
Cn1ncc2c1N(c1ccccc1)c1ccccc1C2	> 10^-5 g/ml
CN1c2ccccc2Oc2cn(CCOc3ccc4ccccc4c3)nc21	> 10^-5 g/ml
CCN1c2cc(O)ccc2Oc2cn(C)nc21	< 10^-5 g/ml
CCN1c2cc(OCC(=O)OCc3ccccc3)ccc2Oc2cn(C)nc21	10^-5 g/ml
Cn1cc2c(n1)N(CC1CCCCC1)c1ccccc1O2	> 10^-5 g/ml

SMILES	Minimum concentration (g/ml) for inhibition of Lipoxygenase in PMN Leucocytes
CC(C)N1c2ccccc2Oc2cn(C)nc21	> 10^-5 g/ml
CN1c2ccccc2Oc2cn(Cc3ccc(Cl)c(Cl)c3)nc21	> 10^-5 g/ml
FC(F)(F)c1ccc2c(c1)Nc1[nH]ncc1O2	< 10^-5 g/ml
FC(F)(F)Sc1ccc2c(c1)Nc1[nH]ncc1O2	< 10^-5 g/ml
c1ccc(N2c3ccccc3Oc3cn[nH]c32)cc1	10^-5 g/ml
CN1c2cc(OCc3ccccc3)ccc2Oc2cn[nH]c21	< 10^-5 g/ml
COc1ccc2c(c1)Oc1cn[nH]c1N2C	< 10^-5 g/ml
COc1ccc2c(c1)Oc1cnn(C)c1N2C	> 10^-5 g/ml
c1ccc(COCCN2c3ccccc3Oc3cn[nH]c32)cc1	10^-5 g/ml
OCCN1c2ccccc2Oc2cn[nH]c21	< 10^-5 g/ml
CCN1c2ccc(OC)cc2Oc2cn[nH]c21	< 10^-5 g/ml
c1c2c(cc3c1OCO3)Oc1cn[nH]c1N2	< 10^-5 g/ml
CN1c2nn(C)cc2Cc2cccc(Br)c21 [Compound 30]	10^-5 g/ml
O=C(O)Cn1cc2c(n1)N(C1CCCCC1)c1ccccc1O2 [Compound 40, 9-Cyclohexylpyrazolo[4,3-b][1,4]benzoxazine-2-acetic acid]	> 10^-5 g/ml
CCN1c2cc(OC)ccc2Oc2cnn(C)c21 [Compound 50]	10^-5 g/ml
Cn1cc2c(n1)N(Cc1ccccc1)c1ccccc1O2 [Compound 60]	> 10^-5 g/ml
CCCCOc1ccc2c(c1)N(C)c1[nH]ncc1O2 [Compound 70]	< 10^-5 g/ml
CN1c2cc(SC(F)(F)F)ccc2Oc2cn[nH]c21 [Compound 71]	< 10^-5 g/ml
CC(=O)n1cc2c(n1)N(C)c1ccccc1C2 [drawing 38]	> 10^-5 g/ml
COc1ccc2c(c1)N(C)c1[nH]ncc1O2 [drawing 47]	< 10^-6 g/ml
CCN1c2cc(OC)ccc2Oc2cnn(C)c21 [drawing 49]	10^-6 g/ml
CCOC(=O)Cn1cc2c(n1)N(C1CCCCC1)c1ccccc1O2 [drawing 50]	> 10^-5 g/ml
CN1c2ccccc2Oc2cn(C(=O)c3ccccn3)nc21 [drawing 53]	> 10^-5 g/ml
CC(=O)n1cc2c(n1)N(C)c1ccccc1O2 [drawing 55]	> 10^-5 g/ml
c1ccc2c(c1)Oc1cn[nH]c1N2C1CCCCC1 [drawing 56]	10^ -6 g/ml
c1ccc2c(c1)Oc1cn[nH]c1N2C1CCCCC1 [drawing 59]	> 10^-6 g/ml

Tested on: carrageenan oedema
Assay: Inhibition of carrageenan oedema formation
Format: in vivo
Settings: rat, oral administration of 25 mg/kg
Excerpt: The compounds according to the invention are also active in vivo. […] The compounds according to the invention also reduce the formation of oedema in the model of carrageenan inflammation, (compare Table 3) and inhibit the formation of metastases from B-16 melanoma (method of Honn, et. al. Science 212, 1270, 1981).

SMILES	inhibition in vivo at 25 mg/kg [%]
Clc1ccc2c(c1)Nc1[nH]ncc1O2 [Compound 2]	57.8
Cc1ccc2c(c1)Nc1[nH]ncc1O2 [Compound 3]	41.4
c1ccc(-n2ncc3c2Nc2ccccc2O3)cc1 [Compound 9]	75.1
CN1c2ccccc2Oc2cn[nH]c21 [Compound 10]	73.4
O=S1(=O)c2ccccc2Nc2[nH]ncc21 [Compound 16]	45.4
CC(=O)n1cc2c(n1)N(C)c1ccccc1C2 [Compound 27]	62.4
COc1ccc2c(c1)N(C)c1[nH]ncc1O2 [Compound 36]	60
CCOC(=O)Cn1cc2c(n1)N(C1CCCCC1)c1ccccc1O2 [Compound 39, Ethyl (9-cyclohexylpyrazolo[4,3-b][1,4]benzoxazin-2-yl) acetate]	47.5
O=C(O)Cn1cc2c(n1)N(C1CCCCC1)c1ccccc1O2 [Compound 40, 9-Cyclohexylpyrazolo[4,3-b][1,4]benzoxazine-2-acetic acid]	44
CN1c2ccccc2Oc2cn(C(=O)c3ccccn3)nc21 [Compound 42]	67.3
CC(=O)n1cc2c(n1)N(C)c1ccccc1O2 [Compound 44, 2-Acetyl-9-methylpyrazolo[4,3-b][1,4]benzoxazine]	70
